According to PubChem BioAssay (NCI):
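The compound was tested at five concentrations on cells cultured in 96-well plates, with a 48-hour exposure period. Abbreviation: GI50, concentration required for 50% inhibition of growth. TGI is the concentration that stops growth completely.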

Experiments:
Experiment in all cases: inhibition of tumour cell growth, NCI panel, 48 h
[1] = tested on: 786-0 renal
[2] = tested on: A498 renal
[3] = tested on: A549 NSCLC
[4] = tested on: ACHN renal
[5] = tested on: BT-549 breast
[6] = tested on: CAKI-1 renal
[7] = tested on: COLO 205 colon
[8] = tested on: DU-145 prostate
[9] = tested on: EKVX NSCLC
[10] = tested on: HCC-2998 colon
[11] = tested on: HCT-116 colon
[12] = tested on: HCT-15 colon
[13] = tested on: HL-60(TB) leukemia
[14] = tested on: HOP-62 NSCLC
[15] = tested on: HOP-92 NSCLC
[16] = tested on: HS 578T breast
[17] = tested on: HT29 colon
[18] = tested on: IGROV1 ovarian
[19] = tested on: K-562 leukemia
[20] = tested on: KM12 colon
[21] = tested on: LOX IMVI melanoma
[22] = tested on: M14 melanoma
[23] = tested on: MALME-3M melanoma
[24] = tested on: MDA-MB-231 breast
[25] = tested on: MDA-MB-435
[26] = tested on: MOLT-4 leukemia
[27] = tested on: NCI-H226 lung
[28] = tested on: NCI-H23 lung
[29] = tested on: NCI-H460 lung
[30] = tested on: NCI-H522 lung
[31] = tested on: NCI/ADR-RES ovarian
[32] = tested on: OVCAR-3 ovarian
[33] = tested on: OVCAR-4 ovarian
[34] = tested on: PC-3 prostate
[35] = tested on: RPMI-8226 leukemia
[36] = tested on: RXF 393 renal
[37] = tested on: SF-268 CNS
[38] = tested on: SF-295 CNS
[39] = tested on: SF-539 CNS
[40] = tested on: SK-MEL-2 melanoma
[41] = tested on: SK-MEL-28 melanoma
[42] = tested on: SK-MEL-5 melanoma
[43] = tested on: SK-OV-3 ovarian
[44] = tested on: SN12C renal
[45] = tested on: SNB-19 CNS
[46] = tested on: SNB-75 CNS
[47] = tested on: SR leukemia
[48] = tested on: SW-620 colon
[49] = tested on: T-47D breast
[50] = tested on: TK-10 renal
[51] = tested on: U251 CNS
[52] = tested on: UACC-257 melanoma

N#CCCCCCn1c2ccccc2c2c3c(c4c5ccccc5[nH]c4c21)C(=O)N(O)C3=O
GI50 [1]: 1640 nM
TGI [1]: 3230 nM
GI50 [2]: 1720 nM
TGI [2]: 4940 nM
GI50 [3]: 2780 nM
TGI [3]: 8120 nM
GI50 [4]: 851 nM
TGI [4]: 2330 nM
GI50 [5]: 1840 nM
TGI [5]: 9530 nM
GI50 [6]: 1850 nM
TGI [6]: 4010 nM
GI50 [7]: 1850 nM
TGI [7]: 4360 nM
GI50 [8]: 1060 nM
TGI [8]: 12200 nM
GI50 [9]: 1770 nM
TGI [9]: 5630 nM
GI50 [10]: 1820 nM
TGI [10]: 6060 nM
GI50 [11]: 894 nM
TGI [11]: 2370 nM
GI50 [12]: 2150 nM
TGI [12]: 7820 nM
GI50 [13]: 1480 nM
TGI [13]: 3500 nM
GI50 [14]: 468 nM
TGI [14]: 2790 nM
GI50 [15]: 2460 nM
TGI [15]: 5240 nM
GI50 [16]: 4770 nM
TGI [16]: > 100000 nM
GI50 [17]: 1860 nM
TGI [17]: 4660 nM
GI50 [18]: 1120 nM
TGI [18]: 3890 nM
GI50 [19]: 1070 nM
TGI [19]: > 100000 nM
GI50 [20]: 1370 nM
TGI [20]: 3390 nM
GI50 [21]: 240 nM
TGI [21]: 1440 nM
GI50 [22]: 595 nM
TGI [22]: 2510 nM
GI50 [23]: 1960 nM
TGI [23]: 5010 nM
GI50 [24]: 1780 nM
TGI [24]: 5320 nM
GI50 [25]: 1190 nM
TGI [25]: 3090 nM
GI50 [26]: 370 nM
TGI [26]: 4330 nM
GI50 [27]: 1930 nM
TGI [27]: 4740 nM
GI50 [28]: 1550 nM
TGI [28]: 5540 nM
GI50 [29]: 1190 nM
TGI [29]: 4960 nM
GI50 [30]: 164 nM
TGI [30]: 411 nM
GI50 [31]: 5520 nM
TGI [31]: > 100000 nM
GI50 [32]: 1470 nM
TGI [32]: 5720 nM
GI50 [33]: 1900 nM
TGI [33]: 13000 nM
GI50 [34]: 1390 nM
TGI [34]: 4510 nM
GI50 [35]: 1040 nM
TGI [35]: 3470 nM
GI50 [36]: 1700 nM
TGI [36]: 4690 nM
GI50 [37]: 957 nM
TGI [37]: 48100 nM
GI50 [38]: 2440 nM
TGI [38]: 6950 nM
GI50 [39]: 632 nM
TGI [39]: 2050 nM
GI50 [40]: 1830 nM
TGI [40]: 4670 nM
GI50 [41]: 1800 nM
TGI [41]: 6610 nM
GI50 [42]: 403 nM
TGI [42]: 1500 nM
GI50 [43]: 2550 nM
TGI [43]: 19400 nM
GI50 [44]: 1290 nM
TGI [44]: 4920 nM
GI50 [45]: 959 nM
TGI [45]: > 100000 nM
GI50 [46]: 684 nM
TGI [46]: 9550 nM
GI50 [47]: 434 nM
TGI [47]: > 100000 nM
GI50 [48]: 1010 nM
TGI [48]: 34800 nM
GI50 [49]: 455 nM
TGI [49]: 8650 nM
GI50 [50]: 2200 nM
TGI [50]: 7880 nM
GI50 [51]: 435 nM
TGI [51]: 1570 nM
GI50 [52]: 1950 nM
TGI [52]: 5450 nM
